Data: ChEMBL document CHEMBL6087428, “Discovery of potent and selective factor XIa inhibitors incorporating triazole-based benzoic acid as novel P2' fragments: Molecular dynamics simulations and anticoagulant activity” (Eur J Med Chem, 2025)

Columns and labels:
Coagulation factor XI [1] = biological target: T1, Coagulation factor XI (Homo sapiens, UniProt P03951); test: Inhibition of human Factor XIa using Boc-Glu(OBzl)-Ala-Arg-AMC assessed as AMC release preincubated for 15 mins followed by substrate addition and measured after 10 mins by microplate fluorescence reader analysis
Plasma kallikrein [2] = biological target: T2, Plasma kallikrein (Homo sapiens, UniProt P03952); test: Inhibition of human PKa using H-Pro-Phe-Arg-AMC as substrate incubated for 15 mins by fluorescence reader analysis
Coagulation factor X = Coagulation factor X (Homo sapiens, UniProt P00742); test: Inhibition of human Factor Xa using Boc-Ile-Glu-Gly-Arg-AMC as substrate incubated for 15 mins by fluorescence reader analysis
Prothrombin = Prothrombin (Homo sapiens, UniProt P00734); test: Inhibition of human thrombin using Boc-Asp(OBzl)-Pro-Arg-AMC as substrate incubated for 15 mins by fluorescence reader analysis
Trypsin = Trypsin (Homo sapiens, UniProt P07477+P07478+P35030); test: Inhibition of human trypsin using Boc-Ile-Glu-Gly-Arg-AMC as substrate incubated for 15 mins by fluorescence reader analysis; format: protein assay
Plasma [3] = test: Anticoagulant activity in citrated human pooled plasma assessed as prolongation of activated partial thromboplastin time incubated for 5 mins by aPTT reagent based semi-automated coagulometric analysis; format: functional
Plasma [4] = test: Anticoagulant activity in citrated human pooled plasma assessed as prolongation of prothrombin time incubated for 3 mins by PT reagent based semi-automated coagulometric analysis; format: functional; settings: 0.05 h
Homo sapiens [5] = species on record: Homo sapiens; test: Selectivity ratio of IC50 for human Factor Xa using Boc-Ile-Glu-Gly-Arg-AMC as substrate to IC50 for human Factor XIa using Boc-Glu(OBzl)-Ala-Arg-AMC
Homo sapiens [6] = species on record: Homo sapiens; test: Selectivity ratio of IC50 for human thrombin using Boc-Asp(OBzl)-Pro-Arg-AMC as substrate to IC50 for human Factor XIa using Boc-Glu(OBzl)-Ala-Arg-AMC
Homo sapiens [7] = species on record: Homo sapiens; test: Selectivity ratio of IC50 for human trypsin using Boc-Ile-Glu-Gly-Arg-AMC as substrate to IC50 for human Factor XIa using Boc-Glu(OBzl)-Ala-Arg-AMC
Coagulation factor XI [8] = biological target: T1, Coagulation factor XI; test: Inhibition of Factor XIa (unknown origin)
Plasma kallikrein [9] = biological target: T2, Plasma kallikrein; test: Inhibition of Pka (unknown origin)

T2 sequence (P03952 20-390 limits assumed): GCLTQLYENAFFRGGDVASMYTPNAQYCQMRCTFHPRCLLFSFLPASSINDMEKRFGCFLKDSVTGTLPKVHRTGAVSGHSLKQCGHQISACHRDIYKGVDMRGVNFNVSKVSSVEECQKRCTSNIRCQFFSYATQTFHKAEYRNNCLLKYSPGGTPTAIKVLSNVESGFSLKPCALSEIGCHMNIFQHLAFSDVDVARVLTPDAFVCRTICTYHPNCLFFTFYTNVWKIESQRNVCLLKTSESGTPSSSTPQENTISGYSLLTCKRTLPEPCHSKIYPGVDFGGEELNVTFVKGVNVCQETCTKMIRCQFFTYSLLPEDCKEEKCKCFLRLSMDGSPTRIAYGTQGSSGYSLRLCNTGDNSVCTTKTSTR
T2 sequence (P03952 391-638 limits assumed): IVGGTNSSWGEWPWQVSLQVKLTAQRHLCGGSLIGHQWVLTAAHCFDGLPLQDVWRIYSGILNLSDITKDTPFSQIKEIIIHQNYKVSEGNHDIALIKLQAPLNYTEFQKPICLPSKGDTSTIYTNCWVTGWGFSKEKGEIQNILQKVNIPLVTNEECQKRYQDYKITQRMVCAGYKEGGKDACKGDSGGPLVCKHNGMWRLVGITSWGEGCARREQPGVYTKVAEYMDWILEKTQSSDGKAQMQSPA
T1 sequence (P03951 19-387 limits assumed): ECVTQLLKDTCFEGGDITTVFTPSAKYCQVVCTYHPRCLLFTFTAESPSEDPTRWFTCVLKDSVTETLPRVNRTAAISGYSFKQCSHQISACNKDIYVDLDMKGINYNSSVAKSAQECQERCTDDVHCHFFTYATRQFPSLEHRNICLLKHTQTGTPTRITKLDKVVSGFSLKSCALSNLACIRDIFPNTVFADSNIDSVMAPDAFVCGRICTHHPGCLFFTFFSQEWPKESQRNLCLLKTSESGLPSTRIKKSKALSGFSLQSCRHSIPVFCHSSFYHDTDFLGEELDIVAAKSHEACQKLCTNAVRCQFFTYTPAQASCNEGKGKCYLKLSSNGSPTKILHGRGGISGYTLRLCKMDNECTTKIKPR
T1 sequence (P03951 388-625 limits assumed): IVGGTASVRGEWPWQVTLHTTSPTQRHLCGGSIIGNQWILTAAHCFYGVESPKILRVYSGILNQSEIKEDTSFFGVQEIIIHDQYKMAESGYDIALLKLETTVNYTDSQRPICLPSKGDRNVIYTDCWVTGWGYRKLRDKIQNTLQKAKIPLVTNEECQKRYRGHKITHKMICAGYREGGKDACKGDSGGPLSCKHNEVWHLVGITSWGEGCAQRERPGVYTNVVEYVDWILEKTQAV
Sequence of Coagulation factor X (P00742 41-179 limits assumed): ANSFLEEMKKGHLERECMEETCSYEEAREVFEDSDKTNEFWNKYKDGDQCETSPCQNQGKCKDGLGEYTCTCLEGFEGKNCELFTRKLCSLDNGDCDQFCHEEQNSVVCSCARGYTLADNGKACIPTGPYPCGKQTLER
Sequence of Coagulation factor X (P00742 235-488 limits assumed): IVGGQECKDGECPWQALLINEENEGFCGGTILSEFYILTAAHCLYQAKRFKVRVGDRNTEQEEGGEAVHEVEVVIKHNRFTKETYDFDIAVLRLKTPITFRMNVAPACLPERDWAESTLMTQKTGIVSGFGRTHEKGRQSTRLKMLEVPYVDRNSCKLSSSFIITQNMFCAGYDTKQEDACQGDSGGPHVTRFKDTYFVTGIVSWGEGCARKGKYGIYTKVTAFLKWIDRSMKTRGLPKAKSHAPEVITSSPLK

Row | IC50 (Coagulation factor XI [1]) | IC50 (Plasma kallikrein [2]) | SMILES | also measured
1 | 1240 nM | 14400 nM | COc1cn(Cc2cn(-c3cccnc3C)nn2)c(=O)cc1-c1cc(Cl)ccc1-n1cc(Cl)nn1 | 
2 | 38.3 nM | 643 nM | COC(=O)c1ccc(-n2cc(C(Cc3ccccc3)n3cc(OC)c(-c4cc(Cl)ccc4-n4cc(C(F)(F)F)nn4)cc3=O)nn2)cc1 (stereo unspecified) | 
3 | 96.3 nM | 1870 nM | COc1cn([C@H](Cc2ccccc2)c2cn(-c3ccc(C(=O)O)cc3)nn2)c(=O)cc1-c1cc(Cl)ccc1-n1cc(Cl)nn1 | IC50 (Coagulation factor X): > 100 µM; IC50 (Prothrombin): 46.9 µM; IC50 (Trypsin): > 100 µM; EC1.5 (Plasma [3]): 29 µM; EC2 (Plasma [4]): >100 µM
4 | 535 nM | 2590 nM | CCC(c1cn(-c2ccccc2)nn1)n1cc(OC)c(-c2cc(Cl)ccc2-n2cc(Cl)nn2)cc1=O (stereo unspecified) | 
5 | 32 nM | 643 nM | CC[C@@H](c1cn(-c2ccc(C(=O)OC)cc2)nn1)n1cc(OC)c(-c2cc(Cl)ccc2-n2cc(Cl)nn2)cc1=O | IC50 (Coagulation factor X): 4.2 µM; IC50 (Prothrombin): 67.7 µM; IC50 (Trypsin): 82.9 µM; EC1.5 (Plasma [3]): 13.2 µM; EC2 (Plasma [4]): >100 µM
6 | 23.2 nM | 900 nM | COc1cn(C(Cc2ccccc2)c2cn(-c3cn[nH]c3)nn2)c(=O)cc1-c1cc(Cl)ccc1-n1cc(C(F)(F)F)nn1 (stereo unspecified) | EC1.5 (Plasma [3]): 1.57 µM; EC2 (Plasma [4]): >100 µM
7 | 30.9 nM | 746 nM | COc1cn(C(Cc2ccccc2)c2cn(-c3ccccc3)nn2)c(=O)cc1-c1cc(Cl)ccc1-n1cc(C(F)(F)F)nn1 (stereo unspecified) | 
8 | 519 nM | 1060 nM | COC(=O)c1cccc(-n2cc(Cn3cc(OC)c(-c4cc(Cl)ccc4-n4cc(Cl)nn4)cc3=O)nn2)c1 | 
9 | 38.7 nM | 832 nM | COc1cn(Cc2cn(-c3ccc(C(=O)O)cc3)nn2)c(=O)cc1-c1cc(Cl)ccc1-n1cc(Cl)nn1 | 
10 | 259 nM | 822 nM | CCC(c1cn(-c2cccc(C(=O)O)c2)nn1)n1cc(OC)c(-c2cc(Cl)ccc2-n2cc(Cl)nn2)cc1=O (stereo unspecified) | 
11 | 102 nM | 2750 nM | COc1cn([C@H](Cc2ccccc2)c2cn(-c3ccc(C(=O)O)cc3)nn2)c(=O)cc1-c1cc(Cl)ccc1-n1cc(C(F)(F)F)nn1 | IC50 (Coagulation factor X): > 33 µM; IC50 (Prothrombin): > 33 µM; IC50 (Trypsin): 88.2 µM; EC1.5 (Plasma [3]): 26.9 µM; EC2 (Plasma [4]): >100 µM
12 | 2.26 nM | 141 nM | COc1cn(C(Cc2ccccc2)c2cn(-c3ccc(C(=O)O)cc3)nn2)c(=O)cc1-c1cc(Cl)ccc1-n1cc(Cl)nn1 (stereo unspecified) | IC50 (Coagulation factor X): 48.2 µM; IC50 (Prothrombin): 42 µM; IC50 (Trypsin): 26.1 µM; EC1.5 (Plasma [3]): 1.41 µM; EC2 (Plasma [4]): >100 µM
13 | 1.52 nM | 73.1 nM | COc1cn([C@@H](Cc2ccccc2)c2cn(-c3ccc(C(=O)O)cc3)nn2)c(=O)cc1-c1cc(Cl)ccc1-n1cc(Cl)nn1 | IC50 (Coagulation factor X): 46.8 µM; IC50 (Prothrombin): 24.4 µM; IC50 (Trypsin): 14.1 µM; Ratio IC50 (Homo sapiens [5]): > 30000; Ratio IC50 (Homo sapiens [6]): > 16000; Ratio IC50 (Homo sapiens [7]): > 9000; EC1.5 (Plasma [3]): 0.75 µM; EC2 (Plasma [4]): >100 µM
14 | 917 nM | 15800 nM | COc1ccc(-n2cc(Cn3cc(OC)c(-c4cc(Cl)ccc4-n4cc(Cl)nn4)cc3=O)nn2)c(C)n1 | 
15 | 186 nM | 2060 nM | COc1cn(Cc2cn(-c3cn[nH]c3)nn2)c(=O)cc1-c1cc(Cl)ccc1-n1cc(Cl)nn1 | 
16 | 1020 nM | 11100 nM | COc1cn(Cc2cn(-c3ccc(Cl)nc3C)nn2)c(=O)cc1-c1cc(Cl)ccc1-n1cc(Cl)nn1 | 
17 | 1960 nM | 4840 nM | CCC(c1cn(-c2ccccc2C(=O)OC)nn1)n1cc(OC)c(-c2cc(Cl)ccc2-n2cc(Cl)nn2)cc1=O (stereo unspecified) | 
18 | 21.4 nM | 683 nM | COc1cn(C(Cc2ccccc2)c2cn(-c3cn[nH]c3)nn2)c(=O)cc1-c1cc(Cl)ccc1-n1cc(Cl)nn1 (stereo unspecified) | EC1.5 (Plasma [3]): 2.64 µM; EC2 (Plasma [4]): >100 µM
19 | 78.7 nM | 412 nM | COc1cn(Cc2cn(-c3cccc(C(=O)O)c3)nn2)c(=O)cc1-c1cc(Cl)ccc1-n1cc(Cl)nn1 | 
20 |  |  | CCC(c1ccc2cc(C(=O)O)ccc2c1)n1cc(OC)c(-c2cc(Cl)ccc2-n2cc(C(F)(F)F)nn2)cc1=O (stereo unspecified) | IC50 (Coagulation factor XI [8]): 86.6 nM; IC50 (Plasma kallikrein [9]): 258 nM
21 | 379 nM | 2510 nM | CCC(c1cn(-c2cn[nH]c2)nn1)n1cc(OC)c(-c2cc(Cl)ccc2-n2cc(Cl)nn2)cc1=O (stereo unspecified) | 
22 | 373 nM | 1490 nM | CCC(c1cn(-c2ccc(C(=O)OC)cc2)nn1)n1cc(OC)c(-c2cc(Cl)ccc2-n2cc(Cl)nn2)cc1=O (stereo unspecified) | 
23 | 0.38 nM | 59.2 nM | COc1cn([C@@H](Cc2ccccc2)c2cn(-c3ccc(C(=O)O)cc3)nn2)c(=O)cc1-c1cc(Cl)ccc1-n1cc(C(F)(F)F)nn1 | IC50 (Coagulation factor X): 31.6 µM; IC50 (Prothrombin): 51 µM; IC50 (Trypsin): 16.5 µM; Ratio IC50 (Homo sapiens [5]): > 80000; Ratio IC50 (Homo sapiens [6]): > 130000; Ratio IC50 (Homo sapiens [7]): > 10000; EC1.5 (Plasma [3]): 0.55 µM; EC2 (Plasma [4]): >100 µM

Row | IC50 (Coagulation factor XI [1]) | IC50 (Plasma kallikrein [2]) | SMILES | also measured
24 | 272 nM | 11600 nM | COc1cn(Cc2cn(-c3ccccc3C(=O)O)nn2)c(=O)cc1-c1cc(Cl)ccc1-n1cc(Cl)nn1 | 
25 | 609 nM | 6520 nM | CCC(c1cn(-c2cnn(C)c2)nn1)n1cc(OC)c(-c2cc(Cl)ccc2-n2cc(Cl)nn2)cc1=O (stereo unspecified) | 
26 | 1100 nM | 7850 nM | CC[C@H](c1cn(-c2ccc(C(=O)OC)cc2)nn1)n1cc(OC)c(-c2cc(Cl)ccc2-n2cc(Cl)nn2)cc1=O | IC50 (Coagulation factor X): 101 µM; IC50 (Trypsin): > 100 µM; EC1.5 (Plasma [3]): 392 µM; EC2 (Plasma [4]): >100 µM
27 | 1660 nM | 11500 nM | COC(=O)c1ccccc1-n1cc(Cn2cc(OC)c(-c3cc(Cl)ccc3-n3cc(Cl)nn3)cc2=O)nn1 | 
28 | 161 nM | 1970 nM | COC(=O)c1ccc(-n2cc(Cn3cc(OC)c(-c4cc(Cl)ccc4-n4cc(Cl)nn4)cc3=O)nn2)cc1 | 
29 |  |  | CC[C@@H](C(=O)Nc1ccc(C(N)=O)c(F)c1)n1cc(OC)c(-c2cc(Cl)ccc2-n2cc(C(F)(F)F)nn2)cc1=O | IC50 (Coagulation factor X): 7.21 µM; IC50 (Prothrombin): 6.27 µM; IC50 (Trypsin): 4.05 µM; EC1.5 (Plasma [3]): 0.71 µM; EC2 (Plasma [4]): >100 µM
30 | 1.31 nM | 112 nM | COc1cn(C(Cc2ccccc2)c2cn(-c3ccc(C(=O)O)cc3)nn2)c(=O)cc1-c1cc(Cl)ccc1-n1cc(C(F)(F)F)nn1 (stereo unspecified) | IC50 (Coagulation factor X): 41.2 µM; IC50 (Prothrombin): 53.7 µM; IC50 (Trypsin): 14.2 µM; EC1.5 (Plasma [3]): 0.81 µM; EC2 (Plasma [4]): >100 µM
31 | 1090 nM | 15800 nM | COc1cn(Cc2cn(-c3ccc(Cl)nc3C#N)nn2)c(=O)cc1-c1cc(Cl)ccc1-n1cc(Cl)nn1 | 
32 | 6550 nM | 23400 nM | CCC(c1cn(-c2cn[nH]c2)nn1)n1cnc(-c2cc(Cl)ccc2-n2cc(Cl)nn2)cc1=O (stereo unspecified) | 
33 | 379 nM | 6800 nM | COc1cn(Cc2cn(-c3cccnc3C(=O)O)nn2)c(=O)cc1-c1cc(Cl)ccc1-n1cc(Cl)nn1 | 
34 | 78.1 nM | 766 nM | COc1cn(Cc2cn(-c3ccccc3)nn2)c(=O)cc1-c1cc(Cl)ccc1-n1cc(Cl)nn1 | 
35 | 2000 nM | 14200 nM | COc1cn(Cc2cn(-c3cc(Br)cnc3C#N)nn2)c(=O)cc1-c1cc(Cl)ccc1-n1cc(Cl)nn1 | 
36 | 497 nM | 9800 nM | CCC(c1cn(-c2ccccc2C(=O)O)nn1)n1cc(OC)c(-c2cc(Cl)ccc2-n2cc(Cl)nn2)cc1=O (stereo unspecified) | 
37 | 84.5 nM | 655 nM | CCC(c1cn(-c2ccc(C(=O)O)cc2)nn1)n1cc(OC)c(-c2cc(Cl)ccc2-n2cc(Cl)nn2)cc1=O (stereo unspecified) | IC50 (Coagulation factor X): 17.4 µM; IC50 (Trypsin): 93.1 µM; EC1.5 (Plasma [3]): 25.4 µM; EC2 (Plasma [4]): >100 µM
38 | 1330 nM | 8130 nM | CCC(c1cn(-c2cnn(C(F)F)c2)nn1)n1cc(OC)c(-c2cc(Cl)ccc2-n2cc(Cl)nn2)cc1=O (stereo unspecified) | 
39 | 2000 nM | 19700 nM | COC(=O)c1ncccc1-n1cc(Cn2cc(OC)c(-c3cc(Cl)ccc3-n3cc(Cl)nn3)cc2=O)nn1 | 
40 | 27 nM | 522 nM | COC(=O)c1ccc(-n2cc(C(Cc3ccccc3)n3cc(OC)c(-c4cc(Cl)ccc4-n4cc(Cl)nn4)cc3=O)nn2)cc1 (stereo unspecified) | 
41 | 30.9 nM | 501 nM | COc1cn(C(Cc2ccccc2)c2cn(-c3ccccc3)nn2)c(=O)cc1-c1cc(Cl)ccc1-n1cc(Cl)nn1 (stereo unspecified) | 
42 | 1600 nM | 2140 nM | CCC(c1cn(-c2cccc(C(=O)OC)c2)nn1)n1cc(OC)c(-c2cc(Cl)ccc2-n2cc(Cl)nn2)cc1=O (stereo unspecified) | 
43 | 14600 nM | 87200 nM | CCC(c1cn(-c2cnn(C)c2)nn1)n1cnc(-c2cc(Cl)ccc2-n2cc(Cl)nn2)cc1=O (stereo unspecified) | 
44 | 6340 nM | 47200 nM | CCC(c1cn(-c2ccccc2)nn1)n1cnc(-c2cc(Cl)ccc2-n2cc(Cl)nn2)cc1=O (stereo unspecified) | 
45 | 288 nM | 3740 nM | COc1cn(Cc2cn(-c3cnn(C)c3)nn2)c(=O)cc1-c1cc(Cl)ccc1-n1cc(Cl)nn1 | 
